Data from PubChem BioAssay AID330 (DTP/NCI, 2004).
Several values for one entry are separate records, joined by “and”; a condition that tells them apart may be missing. Identical values can stand only once. Toxic doses and inconclusive results are not listed. Rule for the calls: active = survival T/C of 150% or more; inactive = T/C below 125% in these data.

System: P388 leukemia ip, CD2F1 mice, survival T/C
Test: NCI In Vivo Anticancer Drug Screen. Data for tumor model P388 Leukemia (intraperitoneal) in CD2F1 (CDF1) mice
Settings: endpoint: median survival time, higher = longer survival
How it was run: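 Mice carrying the transplanted tumor received test compound or vehicle. Survival was recorded in each group, and the value is the treated-group measurement divided by that of the vehicle-treated control group.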

[1] = dose: 50.0 mg/kg/injection, schedule: Q01DX009 (ip), vehicle: Klucel (hydroxypropylcellulose) (HPC)
[2] = dose: 100.0 mg/kg/injection, schedule: Q01DX009 (ip), vehicle: Klucel (hydroxypropylcellulose) (HPC)
[3] = dose: 200.0 mg/kg/injection, schedule: Q01DX009 (ip), vehicle: Klucel (hydroxypropylcellulose) (HPC)
[4] = dose: 50.0 mg/kg/injection, schedule: Q01DX005 (ip), vehicle: saline
[5] = dose: 50.0 mg/kg/injection, schedule: Q01DX009 (ip), vehicle: saline with Tween-80
[6] = dose: 100.0 mg/kg/injection, schedule: Q01DX009 (ip), vehicle: saline with Tween-80
[7] = dose: 200.0 mg/kg/injection, schedule: Q01DX009 (ip), vehicle: saline with Tween-80
[8] = dose: 60.0 mg/kg/injection, schedule: Q01DX005 (ip), vehicle: Klucel (hydroxypropylcellulose) (HPC)
[9] = dose: 120.0 mg/kg/injection, schedule: Q01DX005 (ip), vehicle: Klucel (hydroxypropylcellulose) (HPC)
[10] = dose: 100.0 mg/kg/injection, schedule: Q01DX001 (ip), vehicle: saline with Tween-80
[11] = dose: 200.0 mg/kg/injection, schedule: Q01DX001 (ip), vehicle: saline with Tween-80
[12] = dose: 400.0 mg/kg/injection, schedule: Q01DX001 (ip), vehicle: saline with Tween-80
[13] = dose: 60.0 mg/kg/injection, schedule: Q01DX005 (ip), vehicle: saline with Tween-80
[14] = dose: 120.0 mg/kg/injection, schedule: Q01DX005 (ip), vehicle: saline with Tween-80
[15] = dose: 240.0 mg/kg/injection, schedule: Q01DX005 (ip), vehicle: saline with Tween-80

Measured: T/C

COc1ccc2c(c1)CCC1=C2CCP1(C)=S (configuration not stated)
inactive: [1] 106 % of control | [2] 97 % of control | [3] 88 % of control

CC1=CCN(C)C(C#N)C1 (configuration not stated)
inactive: dose: 12.5 mg/kg/injection, schedule: Q01DX005 (ip), vehicle: saline 97 % of control | dose: 25.0 mg/kg/injection, schedule: Q01DX005 (ip), vehicle: saline 105 % of control | [4] 105 % of control

NC(=S)N/N=C\C(=N/NC(N)=S)c1cccc([N+](=O)[O-])c1
inactive: dose: 12.5 mg/kg/injection, schedule: Q01DX009 (ip), vehicle: saline with Tween-80 92 % of control | dose: 25.0 mg/kg/injection, schedule: Q01DX009 (ip), vehicle: saline with Tween-80 92 % of control | [5] 93 % of control and 96 % of control | [6] 96 % of control | [7] 96 % of control

NS(=O)(=O)c1ccc(N=NC2Sc3nc4ccccc4n3C2=O)cc1 (configuration not stated)
inactive: [8] 94 % of control | [9] 91 % of control

O=C1N(CO)C2C(N1CO)N(CO)C(=O)N2CO (configuration not stated)
inactive: dose: 100.0 mg/kg/injection, schedule: Q04DX003 (ip), vehicle: saline 109 % of control | dose: 200.0 mg/kg/injection, schedule: Q04DX003 (ip), vehicle: saline 118 % of control | dose: 400.0 mg/kg/injection, schedule: Q04DX003 (ip), vehicle: saline 118 % of control

COC(=O)/C(=C\C=C\c1ccccc1)NC(=O)c1ccccc1
inactive: [10] 100 % of control | [11] 96 % of control | [12] 89 % of control

CCOC(=O)N1C=CC2(C=C1)CCCC2
inactive: dose: 50.0 mg/kg/injection, schedule: Q01DX001 (ip), vehicle: Klucel (hydroxypropylcellulose) (HPC) 108 % of control | dose: 100.0 mg/kg/injection, schedule: Q01DX001 (ip), vehicle: Klucel (hydroxypropylcellulose) (HPC) 102 % of control | dose: 200.0 mg/kg/injection, schedule: Q01DX001 (ip), vehicle: Klucel (hydroxypropylcellulose) (HPC) 102 % of control

O=[N+]([O-])c1ccccc1S(=O)NCc1c(Cl)cccc1Cl (configuration not stated)
inactive: [13] 100 % of control | [14] 90 % of control | [15] 100 % of control

O=C1NC(=O)C2CCCc3cccc1c32 (configuration not stated)
inactive: [5] 100 % of control | [6] 97 % of control | [7] 110 % of control

C[C@]12CC[C@H](O)C[C@@]1(O)CC[C@@H]1[C@@H]2CC[C@]2(C)[C@@H](c3ccc(=O)oc3)C[C@H]3O[C@]132
inactive: dose: 1.25 mg/kg/injection, schedule: Q01DX005 (ip), vehicle: saline + alcohol 107 % of control | dose: 2.5 mg/kg/injection, schedule: Q01DX005 (ip), vehicle: saline + alcohol 104 % of control | dose: 5.0 mg/kg/injection, schedule: Q01DX005 (ip), vehicle: saline + alcohol 116 % of control | dose: 10.0 mg/kg/injection, schedule: Q01DX005 (ip), vehicle: saline + alcohol 94 % of control

Cn1ncc2c(N)cc(=O)[nH]c21
inactive: [10] 101 % of control | [11] 94 % of control | [12] 104 % of control

CCN(Cc1ccccc1)C(=O)Nc1c(Cl)cccc1Cl
inactive: [13] 92 % of control | [14] 95 % of control | [15] 86 % of control

CC(=O)OCC#CCN1CCCCCC1
inactive: [4] 91 % of control | dose: 100.0 mg/kg/injection, schedule: Q01DX005 (ip), vehicle: saline 92 % of control

CCOP(=O)(O)OCC.[Sc]
inactive: dose: 100.0 mg/kg/injection, schedule: Q04DX002 (ip), vehicle: saline with Tween-80 93 % of control | dose: 200.0 mg/kg/injection, schedule: Q04DX002 (ip), vehicle: saline with Tween-80 101 % of control | dose: 400.0 mg/kg/injection, schedule: Q04DX002 (ip), vehicle: saline with Tween-80 104 % of control

Cn1cnc([N+](=O)[O-])c1Sc1ncnc2nc[nH]c12
inactive: dose: 216.0 mg/kg/injection, schedule: Q01DX001 (ip), vehicle: saline with Tween-80 106 % of control and 122 % of control | dose: 360.0 mg/kg/injection, schedule: Q01DX001 (ip), vehicle: saline with Tween-80 118 % of control | dose: 600.0 mg/kg/injection, schedule: Q01DX001 (ip), vehicle: saline with Tween-80 108 % of control and 79 % of control

CC(=O)N(C)N(Cc1ccc(C#N)cc1)C(C)=O
inactive: dose: 25.0 mg/kg/injection, schedule: Q01DX009 (ip), vehicle: Klucel (hydroxypropylcellulose) (HPC) 101 % of control | [1] 98 % of control | [2] 99 % of control | [3] 108 % of control | dose: 400.0 mg/kg/injection, schedule: Q01DX009 (ip), vehicle: Klucel (hydroxypropylcellulose) (HPC) 98 % of control

BrCc1ccc2ccc3ccc(CBr)nc3c2n1
inactive: dose: 7.5 mg/kg/injection, schedule: Q01DX005 (ip), vehicle: saline with Tween-80 103 % of control | dose: 15.0 mg/kg/injection, schedule: Q01DX005 (ip), vehicle: saline with Tween-80 115 % of control | dose: 30.0 mg/kg/injection, schedule: Q01DX005 (ip), vehicle: saline with Tween-80 106 % of control

CC[C@]1(O)Cc2c(O)c3c(c(O)c2[C@@H](OC2CC(N)C(O)C(C)O2)C1)C(=O)c1c(OC)cccc1C3=O (some centres not stated)
inactive: dose: 1.2 mg/kg/injection, schedule: Q04DX003 (ip), vehicle: water 117 % of control | dose: 2.4 mg/kg/injection, schedule: Q04DX003 (ip), vehicle: water 119 % of control | dose: 6.25 mg/kg/injection, schedule: Q01DX009 (ip), vehicle: water 95 % of control | dose: 37.5 mg/kg/injection, schedule: Q04DX003 (ip), vehicle: water 103 % of control
active: dose: 1.56 mg/kg/injection, schedule: Q01DX009 (ip), vehicle: water 151 % of control and 169 % of control | dose: 3.13 mg/kg/injection, schedule: Q01DX009 (ip), vehicle: water 156 % of control and 163 % of control

COC1C/C(=N\O)C2OC(c3ccccc3)OCC2O1 (configuration not stated)
inactive: dose: 1.56 mg/kg/injection, schedule: Q01DX009 (ip), vehicle: other 96 % of control | dose: 3.13 mg/kg/injection, schedule: Q01DX009 (ip), vehicle: other 104 % of control | dose: 6.25 mg/kg/injection, schedule: Q01DX009 (ip), vehicle: other 106 % of control | dose: 12.5 mg/kg/injection, schedule: Q01DX009 (ip), vehicle: other 92 % of control | dose: 25.0 mg/kg/injection, schedule: Q01DX009 (ip), vehicle: other 101 % of control and 94 % of control | dose: 50.0 mg/kg/injection, schedule: Q01DX009 (ip), vehicle: other 99 % of control | dose: 100.0 mg/kg/injection, schedule: Q01DX009 (ip), vehicle: other 100 % of control | dose: 200.0 mg/kg/injection, schedule: Q01DX009 (ip), vehicle: other 98 % of control | dose: 400.0 mg/kg/injection, schedule: Q01DX009 (ip), vehicle: other 100 % of control

CC(=O)NC(CCO)C(N)=O (configuration not stated)
inactive: dose: 12.5 mg/kg/injection, schedule: Q01DX009 (ip), vehicle: water 99 % of control and 100 % of control | dose: 25.0 mg/kg/injection, schedule: Q01DX009 (ip), vehicle: water 106 % of control | dose: 50.0 mg/kg/injection, schedule: Q01DX009 (ip), vehicle: water 107 % of control and 120 % of control | dose: 100.0 mg/kg/injection, schedule: Q01DX009 (ip), vehicle: water 111 % of control and 94 % of control | dose: 200.0 mg/kg/injection, schedule: Q01DX009 (ip), vehicle: water 100 % of control and 101 % of control

CC(C)CC1N=C(NN=C(CCl)CCl)SP1(=O)NNc1ncccn1 (configuration not stated)
inactive: [8] 100 % of control | [9] 100 % of control | dose: 240.0 mg/kg/injection, schedule: Q01DX005 (ip), vehicle: Klucel (hydroxypropylcellulose) (HPC) 113 % of control

CC1=NNC(=O)C1(Br)Br
inactive: dose: 3.13 mg/kg/injection, schedule: Q01DX009 (ip), vehicle: Klucel (hydroxypropylcellulose) (HPC) 90 % of control | dose: 6.25 mg/kg/injection, schedule: Q01DX009 (ip), vehicle: Klucel (hydroxypropylcellulose) (HPC) 100 % of control | dose: 12.5 mg/kg/injection, schedule: Q01DX009 (ip), vehicle: Klucel (hydroxypropylcellulose) (HPC) 100 % of control

C=CCn1c(SC)nc2c(c1=O)CCCC2
inactive: [13] 108 % of control | [14] 97 % of control

CCN(CC)C(=O)N1C=CC(C)C=C1
inactive: [13] 100 % of control | [14] 101 % of control

O=C1/C(=C/c2ccccc2[N+](=O)[O-])COc2ccccc21
inactive: [13] 97 % of control | [14] 103 % of control | [15] 97 % of control
